BindingDB's records for doi:10.7270/Q2DZ06SS (Burnham Center For Chemical Genomics, 2011)

Target: T1, BRCA1-associated RING domain protein 1 (Homo sapiens, UniProt Q99728)
T1 sequence (Q99728 whole entry): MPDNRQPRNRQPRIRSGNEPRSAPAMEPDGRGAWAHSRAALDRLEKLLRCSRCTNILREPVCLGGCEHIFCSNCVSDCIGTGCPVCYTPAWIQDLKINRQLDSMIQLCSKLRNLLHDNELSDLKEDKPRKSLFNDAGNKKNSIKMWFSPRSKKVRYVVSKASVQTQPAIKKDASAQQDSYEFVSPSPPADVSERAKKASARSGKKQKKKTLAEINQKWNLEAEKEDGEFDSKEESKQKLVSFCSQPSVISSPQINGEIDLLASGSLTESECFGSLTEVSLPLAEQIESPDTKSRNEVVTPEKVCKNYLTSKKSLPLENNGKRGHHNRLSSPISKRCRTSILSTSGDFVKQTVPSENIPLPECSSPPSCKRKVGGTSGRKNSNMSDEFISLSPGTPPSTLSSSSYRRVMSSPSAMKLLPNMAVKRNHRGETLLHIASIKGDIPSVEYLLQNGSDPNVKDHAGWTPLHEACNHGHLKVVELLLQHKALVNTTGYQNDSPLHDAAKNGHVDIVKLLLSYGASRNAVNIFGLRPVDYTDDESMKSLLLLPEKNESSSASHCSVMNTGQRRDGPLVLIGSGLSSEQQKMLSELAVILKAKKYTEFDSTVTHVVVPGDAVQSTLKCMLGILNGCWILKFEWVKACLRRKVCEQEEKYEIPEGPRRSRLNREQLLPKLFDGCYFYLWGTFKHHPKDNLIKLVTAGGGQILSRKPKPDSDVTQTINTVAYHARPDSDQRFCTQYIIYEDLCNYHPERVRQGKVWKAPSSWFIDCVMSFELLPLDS
Assay: Brca1-Bard1 BiLC signal decrease – cell-based, luminescence, counter-screen for Mdm2/MdmX interaction inhibitor project, dose response (AID 504669)

Compound: Cc1cc(N=NC(C)c2ccccc2O)nc(-c2ccccc2O)n1 (stereo unspecified)
- IC50: 5.35 µM
